Results as given in patent publication US4141986A, “Antibiotics 890A2 and 890A5” (Merck & Co., Inc., priority 1977, dated 1979).

How the values were obtained:
Assay type in all cases: cell-based
[1] = system: Pseudomonas stutzeri ATCC 11607; assay: In vitro antibacterial spectrum profile, agar diffusion; details: Stutzerimonas stutzeri, ATCC11607, read-out: Inhib. Zone Diam.
Escherichia coli MB-1418 = assay: as above; details: read-out: Inhib. Zone Diam.
[2] = system: Erwinia atroseptica ATCC 4466; assay: as above; details: Pectobacterium atrosepticum, ATCC4466, read-out: Inhib. Zone Diam.
[3] = system: Salmonella gallinarum MB-1287; assay: as above; details: Salmonella enterica, read-out: Inhib. Zone Diam.
[4] = system: Pseudomonas aeruginosa MB-979; assay: as above; details: read-out: Inhib. Zone Diam.
[5] = system: Staphylococcus aureus (res. methicillin) MB-2949; assay: as above; details: read-out: Inhib. Zone Diam.
Proteus vulgaris MB-1012 = assay: as above; details: read-out: Inhib. Zone Diam.
[6] = system: Klebsiella pneumoniae MB-1264; assay: as above; details: read-out: Inhib. Zone Diam.
[7] = system: Streptoccocus faecium MB-2820; assay: as above; details: read-out: Inhib. Zone Diam.
[8] = system: Vibrio percolans +2 × 10^5 units/ml. penicillinase MB-1272; assay: In vitro antibacterial spectrum profile, agar diffusion, with penicillinase; details: Comamonas terrigena, read-out: Inhib. Zone Diam.
[9] = system: Escherichia coli ATCC 9637; assay: In vitro antibacterial spectrum profile, agar diffusion; details: read-out: Inhib. Zone Diam.
[10] = system: Staphylococcus aureus ATCC 6538 P; assay: as above
[11] = system: Proteus vulgaris (episome) MB-2112; assay: as above; details: read-out: Inhib. Zone Diam.
Experimental: The test to determine the antibiotic spectrum profile of antibiotic 890A2 is carried out by saturating 1/4 inch diameter paper discs in a solution of antibiotic 890A2 in 5% methanol at a concentration of 5 μg./ml.; air drying the saturated paper discs and placing them on the surface of 100 × 15 mm. petri plates containing 5 ml. of seeded nutrient agar plus 0.2% yeast extract.
The test to determine the antibiotic spectrum profile of antibiotic 890A5 is carried out by application of a 0.015 ml. droplet of a 33 μg./ml. aqueous solution of the antibiotic on the surface of a 100 × 15 mm. petri plate containing 5 ml. of seeded nutrient agar plus 0.2% yeast extract.
^a this episome confers resistance to tetracycline, chloramphenicol,
kanamycin and streptomycin at a concentration of 20 μg./ml. and
neomycin at a concentration of 25 μg./ml. and sulfa drugs.

Sarcina lutea ATCC 9341 = assay: as above; details: Micrococcus luteus, ATCC9341, read-out: Inhib. Zone Diam.
[12] = system: Serratia marcesens ATCC 990; assay: as above; details: read-out: Inhib. Zone Diam.
[13] = system: Streptococcus agalactiae MB-2875; assay: as above; details: read-out: Inhib. Zone Diam.
[14] = system: Xanthomonas vesicatoria MB-815; assay: as above; details: read-out: Inhib. Zone Diam.
[15] = system: Staphylococcus aureus MB-698; assay: as above; details: read-out: Inhib. Zone Diam.
[16] = system: Corynebacterium pseudodiph. ATCC 9742; assay: as above; details: read-out: Inhib. Zone Diam.
[17] = system: Vibrio percolans ATCC 8461; assay: as above; details: Comamonas terrigena, ATCC8461, read-out: Inhib. Zone Diam.
[18] = system: Proteus mirabilis MB-3126; assay: as above; details: read-out: Inhib. Zone Diam.
[19] = system: Vibrio percolans resistant to ceph. C) MB-2566; assay: as above; details: Comamonas terrigena, read-out: Inhib. Zone Diam.
[20] = system: Brucella bronchiseptica ATCC 4617; assay: microbe, parasite or virus in culture; details: Bordetella bronchiseptica, ATCC4617, read-out: Inhib. Zone Diam.
[21] = system: Alcaligenes faecalis ATCC 213; assay: In vitro antibacterial spectrum profile, agar diffusion; details: read-out: Inhib. Zone Diam.
[22] = system: Pseudomonas aeruginosa MB-2824; assay: as above; details: read-out: Inhib. Zone Diam.
[23] = system: Aerobacter aerogenes MB-835; assay: as above; details: Klebsiella aerogenes, MB835, read-out: Inhib. Zone Diam.
[24] = 890A5 33 μg./ml., 0.015 ml. droplet
[25] = 890A2 5 μg./ml., 1/4 inch paper disc

**Q.** How did the zone of inhibition at 33 µg/mL [1, 24] turn out when `CC(=O)NC=CSC1=C(C(=O)O)N2C(=O)C(C(C)O)C2C1` (stereo not shown) [Antibiotic 890A5] was run?
**A.** 14 mm

**Q.** What about the zone of inhibition at 33 µg/mL (Escherichia coli MB-1418; MB1418, 890A5 33 μg./ml., 0.015 ml. droplet) of the same compound?
**A.** 27 mm

**Q.** What about the zone of inhibition at 33 µg/mL [2, 24] of the same compound?
**A.** 21 mm

**Q.** What about the zone of inhibition at 33 µg/mL [3, 24] of the same compound?
**A.** 26 mm

**Q.** What about the zone of inhibition at 33 µg/mL ([4]; MB979, 890A5 33 μg./ml., 0.015 ml. droplet) of the same compound?
**A.** 0 mm

**Q.** What about the zone of inhibition at 33 µg/mL [5] of the same compound?
**A.** 15 mm

**Q.** And the zone of inhibition at 33 µg/mL (Proteus vulgaris MB-1012; MB1012, 890A5 33 μg./ml., 0.015 ml. droplet)?
**A.** 23 mm

**Q.** What about the zone of inhibition at 33 µg/mL ([6]; MB1264, 890A5 33 μg./ml., 0.015 ml. droplet) of the same compound?
**A.** 27 mm

**Q.** And the zone of inhibition at 33 µg/mL [7, 24]?
**A.** 0 mm

**Q.** And the zone of inhibition at 33 µg/mL [8, 24]?
**A.** 40 mm

**Q.** And the zone of inhibition at 33 µg/mL ([9]; ATCC9637, 890A5 33 μg./ml., 0.015 ml. droplet)?
**A.** 24 mm

**Q.** And the zone of inhibition at 33 µg/mL ([10]; ATCC6538, 890A5 33 μg./ml., 0.015 ml. droplet, read-out: Inhib. Zone Diam.)?
**A.** 34 mm

**Q.** And the zone of inhibition at 33 µg/mL [11, 24]?
**A.** 23 mm

**Q.** What about the zone of inhibition at 33 µg/mL (Sarcina lutea ATCC 9341; [24]) of the same compound?
**A.** 40 mm

**Q.** What about the zone of inhibition at 33 µg/mL ([12]; ATCC990, 890A5 33 μg./ml., 0.015 ml. droplet) of the same compound?
**A.** 29 mm

**Q.** What about the zone of inhibition at 33 µg/mL ([13]; MB2875, 890A5 33 μg./ml., 0.015 ml. droplet) of the same compound?
**A.** 27 mm

**Q.** And the zone of inhibition at 33 µg/mL ([14]; MB815, 890A5 33 μg./ml., 0.015 ml. droplet)?
**A.** 20 mm

**Q.** What about the zone of inhibition at 33 µg/mL ([15]; MB698, 890A5 33 μg./ml., 0.015 ml. droplet) of the same compound?
**A.** 35 mm

**Q.** And the zone of inhibition at 33 µg/mL ([16]; ATCC9742, 890A5 33 μg./ml., 0.015 ml. droplet)?
**A.** 33 mm

**Q.** What about the zone of inhibition at 33 µg/mL [17, 24] of the same compound?
**A.** 32 mm

**Q.** And the zone of inhibition at 33 µg/mL ([18]; MB3126, 890A5 33 μg./ml., 0.015 ml. droplet)?
**A.** 20 mm

**Q.** And the zone of inhibition at 33 µg/mL [19]?
**A.** 35 mm

**Q.** And the zone of inhibition at 33 µg/mL [20]?
**A.** 22 mm

**Q.** And the zone of inhibition at 33 µg/mL ([21]; ATCC213, 890A5 33 μg./ml., 0.015 ml. droplet)?
**A.** 25 mm

**Q.** What about the zone of inhibition at 33 µg/mL ([22]; MB2824, 890A5 33 μg./ml., 0.015 ml. droplet) of the same compound?
**A.** 0 mm

**Q.** What about the zone of inhibition at 33 µg/mL [23, 24] of the same compound?
**A.** 24 mm

**Q.** `CC(=O)NC=CSC1=C(C(=O)O)N2C(=O)C(C(C)O)C2C1` (stereo not shown) [Antibiotic 890A2] was tested. Which zone of inhibition at 5 µg/mL [1, 25] did it give?
**A.** 19 mm

**Q.** What about the zone of inhibition at 5 µg/mL (Escherichia coli MB-1418; MB1418, 890A2 5 μg./ml., 1/4 inch paper disc) of the same compound?
**A.** 32 mm

**Q.** And the zone of inhibition at 5 µg/mL [2, 25]?
**A.** 26 mm

**Q.** And the zone of inhibition at 5 µg/mL [3, 25]?
**A.** 33 mm

**Q.** What about the zone of inhibition at 5 µg/mL ([4]; MB979, 890A2 5 μg./ml., 1/4 inch paper disc) of the same compound?
**A.** 0 mm

**Q.** What about the zone of inhibition at 5 µg/mL [5, 25] of the same compound?
**A.** 11 mm

**Q.** What about the zone of inhibition at 5 µg/mL (Proteus vulgaris MB-1012; MB1012, 890A2 5 μg./ml., 1/4 inch paper disc) of the same compound?
**A.** 11 mm

**Q.** What about the zone of inhibition at 5 µg/mL ([6]; MB1264, 890A2 5 μg./ml., 1/4 inch paper disc) of the same compound?
**A.** 31 mm

**Q.** And the zone of inhibition at 5 µg/mL [7, 25]?
**A.** 22 mm

**Q.** And the zone of inhibition at 5 µg/mL [8, 25]?
**A.** 7 mm

**Q.** And the zone of inhibition at 5 µg/mL ([9]; ATCC9637, 890A2 5 μg./ml., 1/4 inch paper disc)?
**A.** 29 mm

**Q.** What about the zone of inhibition at 5 µg/mL ([10]; ATCC6538, read-out: Inhib. Zone Diam.) of the same compound?
**A.** 34 mm

**Q.** And the zone of inhibition at 5 µg/mL [11, 25]?
**A.** 33 mm

**Q.** And the zone of inhibition at 5 µg/mL (Sarcina lutea ATCC 9341; [25])?
**A.** 42 mm

**Q.** What about the zone of inhibition at 5 µg/mL ([12]; ATCC990, 890A2 5 μg./ml., 1/4 inch paper disc) of the same compound?
**A.** 23 mm

**Q.** What about the zone of inhibition at 5 µg/mL ([13]; MB2875, 890A2 5 μg./ml., 1/4 inch paper disc) of the same compound?
**A.** 32 mm

**Q.** What about the zone of inhibition at 5 µg/mL ([14]; MB815, 890A2 5 μg./ml., 1/4 inch paper disc) of the same compound?
**A.** 29 mm

**Q.** What about the zone of inhibition at 5 µg/mL ([15]; MB698, 890A2 5 μg./ml., 1/4 inch paper disc) of the same compound?
**A.** 30 mm

**Q.** What about the zone of inhibition at 5 µg/mL ([16]; ATCC9742, 890A2 5 μg./ml., 1/4 inch paper disc) of the same compound?
**A.** 35 mm

**Q.** What about the zone of inhibition at 5 µg/mL [17, 25] of the same compound?
**A.** 31 mm

**Q.** And the zone of inhibition at 5 µg/mL ([18]; MB3126, 890A2 5 μg./ml., 1/4 inch paper disc)?
**A.** 22 mm

**Q.** And the zone of inhibition at 5 µg/mL [19]?
**A.** 11 mm

**Q.** And the zone of inhibition at 5 µg/mL [20]?
**A.** 29 mm

**Q.** And the zone of inhibition at 5 µg/mL ([21]; ATCC213, 890A2 5 μg./ml., 1/4 inch paper disc)?
**A.** 34 mm

**Q.** And the zone of inhibition at 5 µg/mL ([22]; MB2824, 890A2 5 μg./ml., 1/4 inch paper disc)?
**A.** 13 mm

**Q.** What about the zone of inhibition at 5 µg/mL [23, 25] of the same compound?
**A.** 27 mm
